Data on nine molecules can be found in patent publication US11999727B2 (Tango Therapeutics, Inc., priority 2020, dated 2024).

Assay [1] has as its target T1, PRMT5 (Homo sapiens, UniProt O14744).
T1 construct: purchased Viva (custom protein)
In words: PRMT5 biochemical IC50 assay with MTA as cofactor. The following applies: PRMT5, MTA as cofactor; read-out: MTA IC50.

The subject of assay [2] is HAP1 MTAP-deleted cell line. The experiment in a line: SDMA in-cell western assay, HAP1 MTAP-deleted. The assay is classed as cell-based. The conditions noted are these: for IC50: Homo sapiens, HAP1, SDMA in-cell western, HAP1 MTAP-deleted; for MTAP intact/deleted ratio: SDMA in-cell western. Summed up:
(§1)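 IC50 values come from SDMA signal quantified by in-cell western in two HAP1 lines, one with native MTAP levels and one lacking MTAP.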

For assay [3], the system named is HAP1 MTAP-intact cell line. In words: SDMA in-cell western assay, HAP1 MTAP-intact. It counts as cell-based. The conditions noted are these: Homo sapiens, HAP1, SDMA in-cell western, HAP1 MTAP-intact; read-out: MTAP HAP1 intact IC50. Summed up:
as §1

In assay [4] the target is T1, PRMT5. The experiment in a line: PRMT5 biochemical IC50 assay with no cofactor. The following applies: PRMT5, no cofactor; read-out: No Cofactor/rel IC50. An excerpt:
Table 1 indicates IC50 values (μM) against PRMT5 for exemplary compounds in the presence of SAM as cofactor, with no cofactor, and with MTA as cofactor, respectively (columns 4-6). […] Ki values can be calculated from the IC50 values as described in the Examples section. As detailed in the Examples section, for the assay performed in the presence of SAM, IC50=Ki×1.5 (Ki=IC50/1.5).

Assay [5] has as its target T1, PRMT5. The experiment in a line: PRMT5 biochemical IC50 assay with SAM as cofactor. The conditions noted are these: PRMT5, SAM as cofactor; read-out: SAM IC50.
Where [6] appears, read: read-out: HAP1 MTAP deleted IC50.
[7] abbreviates: IC50 ratio HAP1 MTAP-intact / HAP1 MTAP-deleted.
[8] abbreviates: read-out: HAP 1 MTAP deleted IC50.
Setting [9] is: IC50 ratio HAP1 MTAP-intact vs HAP1 MTAP-deleted.

Structures are written as SMILES. Where two headings read alike, the source gives them in different places.

T1 sequence (O14744 whole entry): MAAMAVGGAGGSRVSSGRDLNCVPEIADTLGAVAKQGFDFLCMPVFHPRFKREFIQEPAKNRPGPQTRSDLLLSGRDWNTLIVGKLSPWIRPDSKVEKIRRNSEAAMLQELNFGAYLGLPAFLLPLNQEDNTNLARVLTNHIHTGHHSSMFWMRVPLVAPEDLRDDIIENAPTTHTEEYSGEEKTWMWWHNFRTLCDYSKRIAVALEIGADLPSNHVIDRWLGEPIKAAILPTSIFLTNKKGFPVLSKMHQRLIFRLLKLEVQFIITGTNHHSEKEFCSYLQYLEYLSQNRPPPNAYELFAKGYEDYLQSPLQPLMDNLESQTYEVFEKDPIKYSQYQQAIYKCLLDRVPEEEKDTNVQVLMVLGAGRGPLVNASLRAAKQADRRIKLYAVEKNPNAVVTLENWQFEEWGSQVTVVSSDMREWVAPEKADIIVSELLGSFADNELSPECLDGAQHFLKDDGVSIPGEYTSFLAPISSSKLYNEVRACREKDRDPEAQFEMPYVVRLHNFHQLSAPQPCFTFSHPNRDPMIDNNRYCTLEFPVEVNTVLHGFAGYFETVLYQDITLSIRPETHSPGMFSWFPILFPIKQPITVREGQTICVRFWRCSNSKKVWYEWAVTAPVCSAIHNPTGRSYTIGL
T1 sequence (Q9BQA1 whole entry partner): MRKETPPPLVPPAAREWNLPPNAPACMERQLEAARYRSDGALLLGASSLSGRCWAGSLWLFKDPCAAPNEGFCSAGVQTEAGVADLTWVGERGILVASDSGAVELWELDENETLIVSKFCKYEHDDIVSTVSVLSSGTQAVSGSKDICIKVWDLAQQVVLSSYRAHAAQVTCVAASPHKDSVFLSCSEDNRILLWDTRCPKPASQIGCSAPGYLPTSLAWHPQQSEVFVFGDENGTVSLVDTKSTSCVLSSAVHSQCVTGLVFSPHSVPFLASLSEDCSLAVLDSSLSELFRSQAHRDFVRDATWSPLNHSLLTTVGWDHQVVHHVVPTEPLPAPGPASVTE

Take `C[C@H]1CC[C@H](c2cc(F)c(F)c(Cl)c2)N(C(=O)C(=O)Nc2cncc(C(N)=O)c2)C1` (single isomer, unassigned) [Compound 846]: the IC50 at PRMT5 [1] is over 500 nM; in assay [2] (setting [6]), over 1000 nM; in assay [3], over 1000 nM; at PRMT5 [4], over 500 nM; on PRMT5 [5] it was over 500 nM. Also, the MTAP intact/deleted ratio entry in assay [2] (setting [7]) is listed as “C (an IC50 ratio of less than 3 fold)”.
For `COc1ncc(NC(=O)C(=O)N2C[C@@H](C)C(F)(F)C[C@@H]2c2ccc(F)cc2)cc1C(N)=O` (single isomer, unassigned) [Compound 1047], the IC50 on PRMT5 [1] was over 500 nM; in assay [2] (setting [8]), over 1000 nM; in assay [3], over 1000 nM; on PRMT5 [4], over 500 nM; at PRMT5 [5], over 500 nM. The MTAP intact/deleted ratio entry in assay [2] (setting [7]) is on record as “C (an IC50 ratio of less than 3 fold)”.
On to `Cc1cc(NC(=O)C(=O)N2C[C@H](C)CC[C@H]2c2cc[nH]n2)cnc1N` (single isomer, unassigned) [Compound 1050], for which the IC50 on PRMT5 [1] is over 500 nM; in assay [2] (setting [8]), over 1000 nM; in assay [3], over 1000 nM; at PRMT5 [4], over 500 nM; at PRMT5 [5] it was over 500 nM. The MTAP intact/deleted ratio entry in assay [2] (setting [7]) is “C (an IC50 ratio of less than 3 fold)”.
As to `COc1ncc(NC(=O)C(=O)N2C[C@H](C)CC[C@H]2c2ccc3nn(C)cc3c2)cc1C(N)=O` (single isomer, unassigned) [Compound 1051], the IC50 is over 500 nM at PRMT5 [1]; over 1000 nM in assay [2] (setting [8]); over 1000 nM in assay [3]; over 500 nM at PRMT5 [4]; over 500 nM at PRMT5 [5]. Further, the MTAP intact/deleted ratio result in assay [2] (setting [7]) was “B (an IC50 ratio greater than or equal to 3 fold but lower than 10 fold)”.
`Cc1cc(NC(=O)C(=O)N2C[C@@H](C)CC[C@H]2C23CC(C(N)=O)(C2)C3)cnc1N` (single isomer, unassigned) [Compound 1053]: the IC50 is 50 to 500 nM on PRMT5 [1]; 100 to 1000 nM in assay [2] (setting [8]); over 1000 nM in assay [3]; over 500 nM on PRMT5 [4]; over 500 nM on PRMT5 [5]. The MTAP intact/deleted ratio entry in assay [2] (setting [7]) is reported as “A (an IC50 ratio greater than or equal to 10 fold)”.
Regarding `CCc1cc(NC(=O)C(=O)N2C[C@H](C)CC[C@H]2c2cc3cn[nH]c3s2)cnc1N` (single isomer, unassigned) [Compound 1055], the IC50 is over 500 nM on PRMT5 [1]; over 1000 nM in assay [2] (setting [8]); over 1000 nM in assay [3]; over 500 nM on PRMT5 [4]; over 500 nM on PRMT5 [5]. For the same molecule, the MTAP intact/deleted ratio entry in assay [2] (setting [7]) is “B (an IC50 ratio greater than or equal to 3 fold but lower than 10 fold)”.
As to `COc1ncc(NC(=O)C(=O)N2C[C@@H](C)CC[C@@H]2c2ccc3nn(C)cc3c2)cc1C(N)=O` (single isomer, unassigned) [Compound 1059], the IC50 is under 50 nM at PRMT5 [1]; under 100 nM in assay [2] (setting [8]); over 1000 nM in assay [3]; 50 to 500 nM at PRMT5 [4]; 50 to 500 nM on PRMT5 [5]. Besides, the MTAP intact/deleted ratio entry in assay [2] (setting [7]) is “A (an IC50 ratio greater than or equal to 10 fold)”.
For the molecule `Cc1cc(NC(=O)C(=O)N2C[C@@H](C)CC[C@@H]2C23CC(C(N)=O)(C2)C3)cnc1N` (single isomer, unassigned) [Compound 1061], the IC50 at PRMT5 [1] was over 500 nM; in assay [2] (setting [6]), over 1000 nM; in assay [3], over 1000 nM; at PRMT5 [4], over 500 nM; at PRMT5 [5] it was over 500 nM. Besides, in assay [2] (setting [9]), the MTAP intact/deleted ratio entry is reported as “B (an IC50 ratio greater than or equal to 3 fold but lower than 10 fold)”.
On to `COc1ncc(NC(=O)C(=O)N2C[C@H](C)C(F)(F)C[C@H]2c2ccc(F)cc2)cc1C(N)=O` (single isomer, unassigned) [Compound 1068], for which the IC50 on PRMT5 [1] was under 50 nM; in assay [2] (setting [6]) it was under 100 nM; in assay [3], over 1000 nM; on PRMT5 [4] it was 50 to 500 nM; on PRMT5 [5] it was 50 to 500 nM. Moreover, the MTAP intact/deleted ratio result in assay [2] (setting [9]) is “A (an IC50 ratio greater than or equal to 10 fold)”.
